Measurements reported in paper PMC9403976, “Elucidating the path to Plasmodium prolyl-tRNA synthetase inhibitors that overcome halofuginone resistance” (Nature Communications, 2022).
“And” between values parts separate entries of the source, which are not always exact repeats. Equal entries are not always repeated. Where two headings read alike, the source gives them in different places.

Columns and labels:
Type in all cases: cell-based, Plasmodium falciparum
[1] = tested on: P. falciparum Dd2-2D4; assay: P. falciparum asexual blood stage (ABS) growth assay, SYBR Green, 72 h, wild-type parasites; details: for ABS growth dose-response, normalized signal (Replicates 1-3) / parasite growth, replicate wells (Fig 1b): Dd2-2D4
[2] = tested on: HFGR-I P. falciparum (elevated proline homeostasis and PfcProRS^L482H); assay: P. falciparum ABS growth assay, SYBR Green, 72 h, HFGR-I parasites; details: for parasite growth, replicate wells (Fig 1b): HFGR-I
How it was run: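 Dd2-derived erythrocytic-stage parasites at 1% parasitemia and 1% hematocrit in RPMI + 0.5% Albumax were exposed to compounds in triplicate dose-response. Controls were 10 μM dihydroartemisinin (kill) and no-compound wells (growth). Growth was read by SYBR Green 1 fluorescence after 72 h and used to derive EC50.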

[3] = tested on: P. falciparum Dd2-2D4 NCP26 selections S1-3; assay: ABS growth assay on bulk populations and clones from NCP26 resistance selections S1-3; details: for EC50: Plasmodium falciparum
Description: In short, P. falciparum erythrocytic-stage parasites at 1% parasitemia and 1% hematocrit in RPMI + 0.5% Albumax were seeded at 40 μL/well in 384-well plates with test compounds in triplicate, dose-response format with 10 μM dihydroartemisinin as a kill-control and blank (no compound) wells as a growth-control. […] After 72 h, growth was quantified by measuring fluorescence (Molecular Devices SpectraMax iD5) following SYBR Green 1 staining. Data were analyzed in Excel and plotted in PRISM (V. 8.4.3–9.1.0, GraphPad).
This cycle was repeated for ~50 generations (~100 days), corresponding to 5–6 cycles of drug pressure.
Clonal parasites were isolated from each selection flask by limiting dilution of ring stage parasites in 96-well plates to an average of 0.8 and 0.2 parasites per well.

[4] = Log[inhibitor] (M) -6.806, listed as NCP26 (3)
[5] = Log[inhibitor] (M) -7.107, listed as NCP26 (3)
[6] = Log[inhibitor] (M) -7.408, listed as NCP26 (3)
[7] = Log[inhibitor] (M) -7.709, listed as NCP26 (3)

O=C(NC1Cc2ccccc2C1)c1nccnc1NC(=O)N1CCCCC1 [NCP26]
ABS growth dose-response, normalized signal (Replicates 1-3) ([1]; Log[inhibitor] (M) -4.699): 0
parasite growth, replicate wells (Fig 1b) ([1]; Log[inhibitor] (M) -4.699): 0.00E+00
ABS growth dose-response, normalized signal (Replicates 1-3) ([1]; Log[inhibitor] (M) -5.000): 0
parasite growth, replicate wells (Fig 1b) ([1]; Log[inhibitor] (M) -5.000): 0.00E+00
ABS growth dose-response, normalized signal (Replicates 1-3) ([1]; Log[inhibitor] (M) -5.301): 0
parasite growth, replicate wells (Fig 1b) ([1]; Log[inhibitor] (M) -5.301): 0.00E+00
ABS growth dose-response, normalized signal (Replicates 1-3) ([1]; Log[inhibitor] (M) -5.602): 0
parasite growth, replicate wells (Fig 1b) ([1]; Log[inhibitor] (M) -5.602): 0.00E+00
ABS growth dose-response, normalized signal (Replicates 1-3) ([1]; Log[inhibitor] (M) -5.903): 0
parasite growth, replicate wells (Fig 1b) ([1]; Log[inhibitor] (M) -5.903): 0.00E+00
ABS growth dose-response, normalized signal (Replicates 1-3) ([1]; Log[inhibitor] (M) -6.204): 0
parasite growth, replicate wells (Fig 1b) ([1]; Log[inhibitor] (M) -6.204): 0.00E+00
ABS growth dose-response, normalized signal (Replicates 1-3) ([1]; Log[inhibitor] (M) -6.505): 0
parasite growth, replicate wells (Fig 1b) ([1]; Log[inhibitor] (M) -6.505): 0.00E+00
parasite growth, replicate wells (Fig 1b) [1, 4]: 6.00E+00 (2×) and 5.00E+00
parasite growth, replicate wells (Fig 1b) [1, 5]: 3.30E+01 and 2.80E+01 and 3.00E+01
parasite growth, replicate wells (Fig 1b) [1, 6]: 9.50E+01 and 9.40E+01 and 9.90E+01
parasite growth, replicate wells (Fig 1b) [1, 7]: 1.09E+02 and 1.04E+02 and 1.02E+02
ABS growth dose-response, normalized signal (Replicates 1-3) ([1]; Log[inhibitor] (M) -8.010): 101
parasite growth, replicate wells (Fig 1b) ([1]; Log[inhibitor] (M) -8.010): 1.01E+02
EC50 ([1]; Plasmodium falciparum, DD2, SI Fig 16b, values on -log scale, read-out: ABS - Dd2-2D4 (converted)): 67.5 nM
parasite growth, replicate wells (Fig 1b) ([2]; Log[inhibitor] (M) -4.699): 0.00E+00
parasite growth, replicate wells (Fig 1b) ([2]; Log[inhibitor] (M) -5.000): 0.00E+00
parasite growth, replicate wells (Fig 1b) ([2]; Log[inhibitor] (M) -5.301): 0.00E+00
parasite growth, replicate wells (Fig 1b) ([2]; Log[inhibitor] (M) -5.602, listed as NCP26 (3)): 0.00E+00 and 1.00E+00 (2×)
parasite growth, replicate wells (Fig 1b) ([2]; Log[inhibitor] (M) -5.903): 0.00E+00
parasite growth, replicate wells (Fig 1b) ([2]; Log[inhibitor] (M) -6.204): 0.00E+00
parasite growth, replicate wells (Fig 1b) ([2]; Log[inhibitor] (M) -6.505): 1.00E+00
parasite growth, replicate wells (Fig 1b) [2, 4]: 7.00E+00 (2×) and 6.00E+00
parasite growth, replicate wells (Fig 1b) [2, 5]: 3.90E+01 and 3.70E+01 (2×)
parasite growth, replicate wells (Fig 1b) [2, 6]: 9.90E+01 and 1.07E+02 and 1.00E+02
parasite growth, replicate wells (Fig 1b) [2, 7]: 1.11E+02 (2×) and 1.00E+02
parasite growth, replicate wells (Fig 1b) ([2]; Log[inhibitor] (M) -8.010, listed as NCP26 (3)): 1.08E+02 and 1.07E+02 and 1.06E+02
dose-response value, Replicates 1-3 (SI Fig 2f) ([2]; Log[inhibitor] (M) -4.699): 0
dose-response value, Replicates 1-3 (SI Fig 2f) ([2]; Log[inhibitor] (M) -5.000): 0
dose-response value, Replicates 1-3 (SI Fig 2f) ([2]; Log[inhibitor] (M) -5.301): 0
dose-response value, Replicates 1-3 (SI Fig 2f) ([2]; Log[inhibitor] (M) -5.903): 0
dose-response value, Replicates 1-3 (SI Fig 2f) ([2]; Log[inhibitor] (M) -6.204): 0
dose-response value, Replicates 1-3 (SI Fig 2f) ([2]; Log[inhibitor] (M) -6.505): 1
EC50 ([3]; DD2, cell line S1 - Clone A8, read-out: EC50 [nM] mean): 68.1 nM
EC50 ([3]; DD2, cell line S1 - bulk population, read-out: EC50 [nM] mean): 102 nM
EC50 ([3]; DD2, cell line S2 - Clone A3, read-out: EC50 [nM] mean): 1240 nM
EC50 ([3]; DD2, cell line S2 - Clone B9, read-out: EC50 [nM] mean): 2930 nM
EC50 ([3]; DD2, cell line S2 - Clone C5, read-out: EC50 [nM] mean): 1580 nM
EC50 ([3]; DD2, cell line S2 - bulk population, read-out: EC50 [nM] mean): 1340 nM
EC50 ([3]; DD2, cell line S3 - Clone B3, read-out: EC50 [nM] mean): 2810 nM
EC50 ([3]; DD2, cell line S3 - Clone B7, read-out: EC50 [nM] mean): 2450 nM
EC50 ([3]; DD2, cell line S3 - bulk population, read-out: EC50 [nM] mean): 2000 nM
EC50 ([3]; DD2, read-out: EC50 [nM] mean, cell line S3 - Clone B2): 5110 nM
parasite growth, dose-response point ([3]; S1 - Clone A8, Log[NCP26] (M) -6.505): 1
parasite growth, dose-response point ([3]; S1 - Clone A8, Log[NCP26] (M) -6.806): 9
parasite growth, dose-response point ([3]; S1 - Clone A8, Log[NCP26] (M) -7.107): 33 and 29
parasite growth, dose-response point ([3]; S1 - Clone A8, Log[NCP26] (M) -7.408): 93 and 97 and 101
parasite growth, dose-response point ([3]; S2 - Clone A3, Log[NCP26] (M) -6.505): 93 and 92 and 86
parasite growth, dose-response point ([3]; S2 - Clone A3, Log[NCP26] (M) -6.806): 96 and 98 and 93
parasite growth, dose-response point ([3]; S2 - Clone A3, Log[NCP26] (M) -7.107): 100 and 98
parasite growth, dose-response point ([3]; S2 - Clone A3, Log[NCP26] (M) -7.408): 99 and 101 and 100
parasite growth, dose-response point ([3]; S2 - Clone B9, Log[NCP26] (M) -6.505): 98 and 112 and 97
parasite growth, dose-response point ([3]; S2 - Clone B9, Log[NCP26] (M) -6.806): 107 and 93 and 96
parasite growth, dose-response point ([3]; S2 - Clone B9, Log[NCP26] (M) -7.107): 96 and 110 and 113
parasite growth, dose-response point ([3]; S2 - Clone B9, Log[NCP26] (M) -7.408): 107 and 94 and 102
parasite growth, dose-response point ([3]; S2 - Clone B9, Log[NCP26] (M) -7.709): 99 and 93 and 94
parasite growth, dose-response point ([3]; S2 - Clone C5, Log[NCP26] (M) -6.505): 95 and 102
parasite growth, dose-response point ([3]; S2 - Clone C5, Log[NCP26] (M) -6.806): 98 and 100 and 101
parasite growth, dose-response point ([3]; S2 - Clone C5, Log[NCP26] (M) -7.107): 101 and 97
parasite growth, dose-response point ([3]; S2 - Clone C5, Log[NCP26] (M) -7.408): 96 and 101 and 100
parasite growth, dose-response point ([3]; S2 - Clone C5, Log[NCP26] (M) -7.709): 102 and 105
parasite growth, dose-response point ([3]; S3 - Clone A6, Log[NCP26] (M) -6.505): 108 and 103 and 90
parasite growth, dose-response point ([3]; S3 - Clone A6, Log[NCP26] (M) -6.806): 101 and 97
parasite growth, dose-response point ([3]; S3 - Clone A6, Log[NCP26] (M) -7.107): 95 and 100 and 96
parasite growth, dose-response point ([3]; S3 - Clone A6, Log[NCP26] (M) -7.408): 112 and 100 and 105
parasite growth, dose-response point ([3]; S3 - Clone A8, Log[NCP26] (M) -6.505): 94 and 102 and 97
parasite growth, dose-response point ([3]; S3 - Clone A8, Log[NCP26] (M) -6.806): 101 and 99 and 104
parasite growth, dose-response point ([3]; S3 - Clone A8, Log[NCP26] (M) -7.107): 100 and 103 and 99
parasite growth, dose-response point ([3]; S3 - Clone A8, Log[NCP26] (M) -7.408): 104 (2×) and 98
parasite growth, dose-response point ([3]; S3 - Clone B2, Log[NCP26] (M) -6.505): 76 and 92 and 86
parasite growth, dose-response point ([3]; S3 - Clone B2, Log[NCP26] (M) -6.806): 88 and 90 and 99
parasite growth, dose-response point ([3]; S3 - Clone B2, Log[NCP26] (M) -7.107): 113 and 109 and 107
parasite growth, dose-response point ([3]; S3 - Clone B2, Log[NCP26] (M) -7.408): 108 and 109
parasite growth, dose-response point ([3]; S3 - Clone B3, Log[NCP26] (M) -6.505): 92 and 95
parasite growth, dose-response point ([3]; S3 - Clone B3, Log[NCP26] (M) -6.806): 92 and 96 and 98
parasite growth, dose-response point ([3]; S3 - Clone B3, Log[NCP26] (M) -7.107): 99 and 94
parasite growth, dose-response point ([3]; S3 - Clone B3, Log[NCP26] (M) -7.408): 105 and 101 and 104
parasite growth, dose-response point ([3]; S3 - Clone B7, Log[NCP26] (M) -6.505): 101 and 95 and 100
parasite growth, dose-response point ([3]; S3 - Clone B7, Log[NCP26] (M) -6.806): 99 and 96 and 101
